Source: article PMC9532755, “Impact of lactisole on the time-intensity profile of selected sweeteners in dependence of the binding site” (Food Chemistry: X, 2022)
Peptide text beside a SMILES is read from it.

Molecular target: T1, human sweet taste receptor TAS1R2/TAS1R3 (Homo sapiens, UniProt Q7RTX0+Q8TE23)
T1 construct: expressed in transfected cells; host or cells: HEK293 Flp-In T-Rex cells; Gα15Gi3 and TAS1R2 constitutive, TAS1R3 tetracycline-inducible
T1 sequence (Q8TE23 20-839): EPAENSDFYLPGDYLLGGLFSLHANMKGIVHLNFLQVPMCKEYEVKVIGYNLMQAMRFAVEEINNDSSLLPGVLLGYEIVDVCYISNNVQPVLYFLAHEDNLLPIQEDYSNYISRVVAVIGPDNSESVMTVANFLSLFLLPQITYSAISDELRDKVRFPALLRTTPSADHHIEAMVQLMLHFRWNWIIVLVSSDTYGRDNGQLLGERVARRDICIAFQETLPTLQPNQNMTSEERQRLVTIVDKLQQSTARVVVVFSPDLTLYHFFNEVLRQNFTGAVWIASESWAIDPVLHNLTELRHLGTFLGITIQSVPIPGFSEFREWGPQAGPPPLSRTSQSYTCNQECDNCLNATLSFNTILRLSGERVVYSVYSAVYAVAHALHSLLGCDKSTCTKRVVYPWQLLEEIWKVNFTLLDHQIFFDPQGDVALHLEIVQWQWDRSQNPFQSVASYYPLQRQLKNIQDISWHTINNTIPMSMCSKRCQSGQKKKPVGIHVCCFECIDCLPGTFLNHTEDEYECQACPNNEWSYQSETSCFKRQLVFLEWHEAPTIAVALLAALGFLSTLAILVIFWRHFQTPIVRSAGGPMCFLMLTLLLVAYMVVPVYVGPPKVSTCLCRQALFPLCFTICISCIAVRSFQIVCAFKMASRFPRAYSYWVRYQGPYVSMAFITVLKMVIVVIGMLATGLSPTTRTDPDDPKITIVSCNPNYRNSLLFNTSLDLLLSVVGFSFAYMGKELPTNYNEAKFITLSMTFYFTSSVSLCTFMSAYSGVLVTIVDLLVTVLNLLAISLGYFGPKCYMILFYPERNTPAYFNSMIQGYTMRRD
T1 sequence (Q7RTX0 21-852): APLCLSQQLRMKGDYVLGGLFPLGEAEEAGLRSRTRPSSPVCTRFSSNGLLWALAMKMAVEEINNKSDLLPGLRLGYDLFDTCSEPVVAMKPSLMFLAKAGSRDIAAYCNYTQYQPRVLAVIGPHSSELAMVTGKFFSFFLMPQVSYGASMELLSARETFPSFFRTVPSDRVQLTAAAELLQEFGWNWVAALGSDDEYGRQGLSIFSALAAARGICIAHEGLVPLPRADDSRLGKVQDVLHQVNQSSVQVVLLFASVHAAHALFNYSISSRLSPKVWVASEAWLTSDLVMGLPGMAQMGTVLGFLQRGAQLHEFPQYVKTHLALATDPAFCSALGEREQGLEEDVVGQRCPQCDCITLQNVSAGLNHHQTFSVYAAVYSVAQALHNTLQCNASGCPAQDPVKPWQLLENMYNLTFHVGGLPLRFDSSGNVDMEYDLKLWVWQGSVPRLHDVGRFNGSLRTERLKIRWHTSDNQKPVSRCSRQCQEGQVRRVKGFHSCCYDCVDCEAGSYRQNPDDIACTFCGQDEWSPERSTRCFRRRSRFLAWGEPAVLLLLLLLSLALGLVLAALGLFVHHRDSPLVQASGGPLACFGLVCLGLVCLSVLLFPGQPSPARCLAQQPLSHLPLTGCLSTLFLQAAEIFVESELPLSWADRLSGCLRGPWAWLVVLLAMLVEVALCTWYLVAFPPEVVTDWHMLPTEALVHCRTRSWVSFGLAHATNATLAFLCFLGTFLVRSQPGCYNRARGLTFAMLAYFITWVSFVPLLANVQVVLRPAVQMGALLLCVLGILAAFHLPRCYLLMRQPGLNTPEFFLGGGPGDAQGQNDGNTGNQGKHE
Assay: Calcium mobilization assay in HEK293 Flp-In T-Rex-Gα15Gi3-TAS1R2/TAS1R3 cells (FLIPR, Fluo-4)
Format: cell-based
Conditions: for mode of inhibition by lactisole (shift of dose-response curve), cell experiments: combination with 10, 30, 100 μM lactisole; for time until reaching peak activity after agonist application / time where signal decreased below 50 % of the maximum signal amplitude, after agonist application: counted from agonist application at 20 sec; for time until reaching peak activity after agonist application / time where signal decreased below 50 % of the maximum signal amplitude, after agonist application / time until reaching the peak amplitude / time where signal decreased below 50 % of the maximum signal amplitude / time of signal decay back to baseline / time signal stayed above initial baseline: 1 mM Ace K, 3 mM aspartame, 10 mM cyclamate, 0.3 mM NHDC; for time until reaching the peak amplitude: including 20 sec of baseline monitoring prior to agonist application; for time where signal decreased below 50 % of the maximum signal amplitude: including 20 sec of baseline monitoring; for time of signal decay back to baseline / time signal stayed above initial baseline: raw fluorescence traces; for EC50: w/o lactisole, agonist concentrations on x-axis in mM, 3 independent experiments in duplicates, read-out: EC50 of TAS1R2/TAS1R3 activation (ΔF/F)
Protocol: For the functional characterization of the human sweet taste receptor, we used HEK293 Flp-In T-Rex cells stably transfected with the G protein chimera Gα15Gi3, and the two subunits of the human sweet taste receptor, TAS1R2 and TAS1R3 ([Galindo-Cuspinera et al., 2006]). The G protein chimera and TAS1R2 subunit are constitutively expressed, whereas the expression of the TAS1R3 subunit is inducible through addition of 0.5 µg/mL tetracycline. The experiments were done exactly as before ([Behrens et al., 2017], [Ben Abu et al., 2021]). Briefly, cells were seeded into 96-well plates (black, flat clear bottom) treated with 10 µg/mL poly-D-lysine and grown in low-glucose DMEM supplemented with 10 % fetal bovine serum, 100 U Penicillin/mL, 0.1 mg/mL Streptomycin, 2 mM L-glutamine, at 37 °C, 5 % CO2, saturated air-humidity overnight. About 24 h before the experiment tetracycline was added to induce TAS1R3 expression. Next, cells were loaded for 1 h with Fluo-4 am in the presence of 2.5 mM probenecid and washed twice with C1-buffer (130 mM NaCl, 5 mM KCl, 10 mM HEPES, 1 mM sodium pyruvate, and 2 mM CaCl2, pH 7.4). Then, plates were placed in a fluorometric imaging plate reader (FLIPR^tetra, Molecular Devices, San Jose, CA, United States) for automated compound application and measurement of fluorescence changes. Fluorescence changes of control wells not induced with tetracycline were subtracted from the data. Next, measurements were corrected for background fluorescence. Dose-response relationships of three independent experiments each performed in duplicates were calculated with SigmaPlot 14.0 software using the function f(x) = min+(max − min)/(1+(x/EC50)^nH).
TI-ratings were recorded and analyzed using the software EyeQuestion® 4.11.74 (Logic8 BV, NL) online and MS Excel 16.0 (Microsoft Corporation, USA). The statistical analysis and graphical representation were performed with GraphPad Prism 9.0 for sensory results and with SigmaPlot 14.0 for cell experiments. To evaluate the sensory dose–response effects of ascending sweetener concentration w/o lactisole, an asymmetrical five-parameter curve (Richard́s five-parameter dose–response curve) was fitted. The data are presented as means ± SEM from at least 16 single evaluations. Statistical significance between the different test compounds and concentration-dependent effects was assessed by two-way ANOVAs with Tukey post hoc test using Graph Pad Prism. The normal distribution of the data sets was checked by evaluation of the kurtosis (between −7 to + 7) and the skewness (between −3 to + 3). Equal variance was tested using Levenés test. In case the assumptions of a normal distribution and equal variance were not met, the non-parametric ANOVA on ranks (Kruskal-Wallis Test) with Dunn's post-hoc test without the calculation of interaction was applied. A Pearson product moment correlation was conducted to investigate relationships between sensory results and cell responses of the tested sweeteners.

Row | Structure (SMILES) | mode of inhibition by lactisole (shift of dose-response curve), cell experiments | time until reaching peak activity after agonist application [s] | time where signal decreased below 50 % of the maximum signal amplitude, after agonist application [s] | time until reaching the peak amplitude [s] | time where signal decreased below 50 % of the maximum signal amplitude [s] | time of signal decay back to baseline / time signal stayed above initial baseline | EC50 [mM]
1 | COC(=O)[C@H](Cc1ccccc1)NC(=O)[C@@H](N)CC(=O)O [aspartame] (H-Asp-Phe-OMe) | Allosteric inhibition | 23 | 73 | 43 | 93 | ≥ 6 min | 0.33 ± 0.02
2 | COc1ccc(CCC(=O)c2c(O)cc(O[C@@H]3O[C@H](CO)[C@@H](O)[C@H](O)[C@H]3O[C@@H]3O[C@@H](C)[C@H](O)[C@@H](O)[C@H]3O)cc2O)cc1O [NHDC, neohesperidin dihydrochalcone] | competitive inhibition | 27 | 87 | 47 | 107 | ≥ 6 min | 0.05 ± 0.01
3 | CC1=CC(=O)NS(=O)(=O)O1 [acesulfame K] | Allosteric inhibition | 27 | 65 | 47 | 85 | about 3 min | 0.36 ± 0.04
4 | O=S(=O)(O)NC1CCCCC1 [cyclamate] | competitive inhibition | 19 | 73 | 39 | 93 | ≥ 6 min | 1.51 ± 0.11
